Assay results published in patent US20210163443A1, “Febrifugine Derivatives” (BRISTOL-MYERS SQUIBB COMPANY, priority 2019, published 2021).
Where a name gives a salt, the structure may show the parent alone.

biological target: T1, human ProRS (prolyl tRNA synthetase moiety of glutamyl prolyl tRNA synthetase, EPRS) (Homo sapiens, UniProt P07814); assay: Assay for inhibitors of prolyl tRNA synthetase activity (ProRS assay, labeled proline incorporation); assay type: biochemical; conditions: human ProRS 20 nM, 10 min at 37° C.; read-out: EPRS IC50
T1 construct: The prolyl tRNA synthetase moiety (ProRS) in the cDNA of glutamyl prolyl tRNA synthetase was subcloned; 6xHis (N, cleaved yes); made in house; host or cells: E. coli BL21 (DE3)
T1 sequence (P07814 1007-1512 limits assumed): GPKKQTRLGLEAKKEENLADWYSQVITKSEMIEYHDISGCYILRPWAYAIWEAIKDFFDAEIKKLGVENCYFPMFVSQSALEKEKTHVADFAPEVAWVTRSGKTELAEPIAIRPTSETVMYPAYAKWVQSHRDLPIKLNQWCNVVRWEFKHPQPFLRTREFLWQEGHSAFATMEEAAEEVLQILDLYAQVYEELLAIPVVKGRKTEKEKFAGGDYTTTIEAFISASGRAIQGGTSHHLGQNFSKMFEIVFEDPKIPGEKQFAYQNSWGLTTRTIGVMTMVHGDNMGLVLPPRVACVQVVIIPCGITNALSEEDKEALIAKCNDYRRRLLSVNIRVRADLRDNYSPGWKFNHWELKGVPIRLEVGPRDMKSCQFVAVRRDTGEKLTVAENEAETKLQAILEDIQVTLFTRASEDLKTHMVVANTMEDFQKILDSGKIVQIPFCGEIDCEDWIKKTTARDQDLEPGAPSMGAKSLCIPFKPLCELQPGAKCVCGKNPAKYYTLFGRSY
From the text: In order to establish the activities of the compounds highlighted above, we determined extent of inhibition of prolyl tRNA synthetase activity in dose response curves to obtain IC50 values.
The prolyl tRNA synthetase moiety (ProRS) in the cDNA of glutamyl prolyl tRNA synthetase was subcloned, tagged with a single biotin, purified and used in the assay.
Briefly, human ProRS with a 6×N-terminal His tag in pET28N with TVMV BioP was transformed in E. coli BL21 (DE3) cells, selected, overexpressed and purified using a Ni Seph 6 FF XK 16/20 column in the first stage. Ni-NTA eluates were pooled and treated with TVMV protease, and biotinylated using d-Biotin, MgCl2, ATP and the BirA enzyme. This was rerun through a Ni column as before. The eluates were further enriched and purified using membrane ultrafiltration and a SuperDex 200 XK 16/60 column, and peak fractions were confirmed by SDS-PAGE prior to protein amount determination, aliquoting and storage at −80° C. • ProRS assay was performed in 96 well plates in a final reaction volume of 20 μl, using staggered additions of Tris-Cl (pH 7.5, 60 mM), dithiothreitol (2 mM), ATP (5 mM, pH 7.0), MgCl2 6 mM), ProRS (20 nM, with pre-determined active fraction range) and bovine tRNA (20 μg). Controls and compounds, at various concentrations (10 μM to 0.5 nM), were incubated on ice with enzyme mix for 15 min followed by addition of proline (non-labeled and labeled, 3.96 and 1.04 μM (1 μCi) respectively) to initiate the reaction. Reaction was carried out for 10 min at 37° C. and terminated by addition of TCA (10%, 100 μl). Reaction mix was collected on a Whatman GF/B filter using a vacuum filtration manifold. This filter was washed 3 times with 5% TCA followed by 2 washes with ethanol, air dried, and read using a liquid scintillation counter (TopCount NXT) using MicroScint O. IC50 values were calculated and analyzed using ToolSet (4-parameter plot) and depicted herein.

Row | Compound | IC50 [nM]
1 | CCc1cc(Cl)cc2c(=O)n(C[C@@H](O)C[C@H]3NCCC[C@@H]3O)cnc12 [Example 38, 6-Chloro-8-ethyl-3-{(S)-2-hydroxy-3-[(2R,3S)-3-hydroxypiperidin-2-yl]propyl}quinazolin-4(3H)-one hydrochloride] | 506
2 | Cc1cc(N2CCCC2)cc2c(=O)n(CC(=O)C[C@H]3NCCC[C@@H]3O)cnc12 [Example 24, 3-{3-[(2R,3S)-3-Hydroxypiperidin-2-yl]-2-oxopropyl}-8-methyl-6-(pyrrolidin-1-yl)quinazolin-4(3H)-one dihydrochloride] | 14
3 | Cc1cc(Cl)cc2c(=O)n(CC(=O)C[C@H]3NCCC[C@@H]3O)cnc12 [Example 1, 6-Chloro-3-{3-[(2R,3S)-3-hydroxypiperidin-2-yl]-2-oxopropyl}-8-methylquinazolin-4(3H)-one hydrochloride] | 73
4 | Cc1cc(S(C)(=O)=O)cc2c(=O)n(CC(=O)C[C@H]3NCCC[C@@H]3O)cnc12 [Example 8, 3-{3-[(2R,3S)-3-Hydroxypiperidin-2-yl]-2-oxopropyl}-8-methyl-6-methylsulfonyl)quinazolin-4(3H)-one hydrochloride] | 9
5 | Cc1cc(-c2cccc(C(F)(F)F)c2)cc2c(=O)n(C[C@@H](O)C[C@H]3NCCC[C@@H]3O)cnc12 [Example 54, 3-{(S)-2-Hydroxy-3-[(2R,3S)-3-hydroxypiperidin-2-yl]propyl}-8-methyl-6-(3-(trifluoromethyl)phenyl)quinazolin-4(3H)-one hydrochloride] | 31
6 | Cc1cc(-c2cccnc2)cc2c(=O)n(CC(=O)C[C@H]3NCCC[C@@H]3O)cnc12 [Example 21, 3-{3-[(2R,3S)-3-Hydroxypiperidin-2-yl]-2-oxopropyl}-8-methyl-6-(pyridin-3-yl)quinazolin-4(3H)-one dihydrochloride] | 8
7 | O=C(C[C@H]1NCCC[C@@H]1O)Cn1cnc2ccc(-c3cccc(C(F)(F)F)c3)cc2c1=O [Example 18, 3-{3-[(2R,3S)-3-Hydroxypiperidin-2-yl]-2-oxopropyl}-6-[3-(trifluoromethyl)phenyl]quinazolin-4(3H)-one hydrochloride] | 40
8 | Cc1cc(Br)cc2c(=O)n(C[C@@H](O)C[C@H]3NCCC[C@@H]3O)cnc12 [Example 37, 6-Bromo-3-{(S)-2-hydroxy-3-[(2R,3S)-3-hydroxypiperidin-2-yl]propyl}-8-methylquinazolin-4(3H)-one hydrochloride] | 62
9 | 3-{(S)-2-hydroxy-3-[(2R,3S)-3-hydroxypiperidin-2-yl]propyl}-8-methyl-6-(1-methyl-1H-pyrazol-3-yl)quinazolin-4(3H)-one hydrochloride [Example 71] | 4200
10 | Cc1cc(-c2cccc(F)c2)cc2c(=O)n(C[C@@H](O)C[C@H]3NCCC[C@@H]3O)cnc12 [Example 53, 6-(3-Fluorophenyl)-3-{(S)-2-hydroxy-3-[(2R,3S)-3-hydroxypiperidin-2-yl]propyl}-8-methylquinazolin-4(3H)-one hydrochloride] | 9
11 | Cc1cc(-c2cccc(C(F)(F)F)c2)cc2c(=O)n(CC(=O)C[C@H]3NCCC[C@@H]3O)cnc12 [Example 20, 3-{3-[(2R,3S)-3-Hydroxypiperidin-2-yl]-2-oxopropyl}-8-methyl-6-[3-(trifluoromethyl)phenyl]quinazolin-4(3H)-one hydrochloride] | 28
12 | Cc1cc(-c2cscn2)cc2c(=O)n(C[C@@H](O)C[C@H]3NCCC[C@@H]3O)cnc12 [Example 66, 3-((S)-2-hydroxy-3-((2R,3S)-3-hydroxypiperidin-2-yl)propyl)-8-methyl-6-(thiazol-4-yl)quinazolin-4(3H)-one hydrochloride] | 13
13 | O=c1c2c(-c3ccc(F)c(F)c3)cccc2ncn1C[C@@H](O)C[C@H]1NCCC[C@@H]1O [Example 61, 5-(3,4-Difluorophenyl)-3-{(S)-2-hydroxy-3-[(2R,3S)-3-hydroxypiperidin-2-yl]propyl}quinazolin-4(3H)-one hydrochloride] | 69

Results, then the compound that gave them:

Row | IC50 [nM] | Compound
14 | 429 | Cc1c(Cl)ccc2c(=O)n(C[C@@H](O)C[C@H]3NCCC[C@@H]3O)cnc12 [Example 36, 7-Chloro-3-{(S)-2-hydroxy-3-[(2R,3S)-3-hydroxypiperidin-2-yl]propyl}-8-methylquinazolin-4(3H)-one hydrochloride]
15 | 158 | Cc1cc(C)c2ncn(C[C@@H](O)C[C@H]3NCCC[C@@H]3O)c(=O)c2c1 [Example 39, 3-{(S)-2-Hydroxy-3-[(2R,3S)-3-hydroxypiperidin-2-yl]propyl}-6,8-dimethylquinazolin-4(3H)-one hydrochloride]
16 | 10 | O=C(C[C@H]1NCCC[C@@H]1O)Cn1cnc2ccc(-c3cccc(F)c3)cc2c1=O [Example 16, 6-(3-Fluorophenyl)-3-{3-[(2R,3S)-3-hydroxypiperidin-2-yl]-2-oxopropyl}quinazolin-4(3H)-one hydrochloride]
17 | 34 | Cc1cc(C2CC2)cc2c(=O)n(C[C@@H](O)C[C@H]3NCCC[C@@H]3O)cnc12 [Example 46, 6-Cyclopropyl-3-{(S)-2-hydroxy-3-[(2R,3S)-3-hydroxypiperidin-2-yl]propyl}-8-methylquinazolin-4(3H)-one hydrochloride]
18 | 15 | Cc1c(Cl)ccc2c(=O)n(CC(=O)C[C@H]3NCCC[C@@H]3O)cnc12 [Example 2, 7-Chloro-3-{3-[(2R,3S)-3-hydroxypiperidin-2-yl]-2-oxopropyl}-8-methylquinazolin-4(3H)-one hydrochloride]
19 | 7 | Cc1cc(C(F)(F)F)cc2c(=O)n(CC(=O)C[C@H]3NCCC[C@@H]3O)cnc12 [Example 9, 3-{3-[(2R,3S)-3-Hydroxypiperidin-2-yl]-2-oxopropyl}-8-methyl-6-(trifluoromethyl)quinazolin-4(3H)-one hydrochloride]
20 | 40 | O=c1c2cc(-c3cccc(C(F)(F)F)c3)ccc2ncn1C[C@@H](O)C[C@H]1NCCC[C@@H]1O [Example 52, 3-{(S)-2-hydroxy-3-[(2R,3S)-3-hydroxypiperidin-2-yl]propyl}-6-(3-(trifluoromethyl)phenyl)quinazolin-4(3H)-one hydrochloride]
21 | 9 | O=c1c2c(C3CC3)cccc2ncn1C[C@@H](O)C[C@H]1NCCC[C@@H]1O [Example 68, 5-Cyclopropyl-3-{(S)-2-hydroxy-3-[(2R,3S)-3-hydroxypiperidin-2-yl]propyl}quinazolin-4(3H)-one hydrochloride]
22 | 4 | Cc1cc(-c2ccc(F)c(F)c2)cc2c(=O)n(C[C@@H](O)C[C@H]3NCCC[C@@H]3O)cnc12 [Example 56, 6-(3,4-Difluorophenyl)-3-{(S)-2-hydroxy-3-[(2R,3S)-3-hydroxypiperidin-2-yl]propyl}-8-methylquinazolin-4(3H)-one hydrochloride]
23 | 3 | CCc1cc(C)c2ncn(CC(=O)C[C@H]3NCCC[C@@H]3O)c(=O)c2c1 [Example 6, 6-Ethyl-3-(3-((2R,3S)-3-hydroxypiperidin-2-yl)-2-oxopropyl)-8-methylquinazolin-4(3H)-one hydrochloride]
24 | 316 | O=c1c2c(C(F)(F)F)cccc2ncn1C[C@@H](O)C[C@H]1NCCC[C@@H]1O [Example 59, 3-{(S)-2-Hydroxy-3-[(2R,3S)-3-hydroxypiperidin-2-yl]propyl}-5-(trifluoromethyl)quinazolin-4(3H)-one hydrochloride]
